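In this assay, cells in 96-well plates receive the compound at five concentrations for 48 hours. Endpoints are linearly interpolated between the surrounding concentrations. Abbreviation: GI50, concentration required for 50% inhibition of growth.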 Calls of active or inactive are those of the source. Rule as the data show it: active = GI50 up to about 1.1 µM and inactive = higher.
Columns and labels:
Assay in all cases: NCI tumour cell line growth inhibition, 48 h
786-0 = test system: 786-0
A498 = test system: A498
A549 = test system: A549
ACHN = test system: ACHN
BT-549 = test system: BT-549
CCRF-CEM = test system: CCRF-CEM
COLO 205 = test system: COLO 205
DU-145 = test system: DU-145
EKVX = test system: EKVX
HCC 2998 = test system: HCC 2998
HCT-116 = test system: HCT-116
HCT-15 = test system: HCT-15
HL-60 = test system: HL-60
HOP-62 = test system: HOP-62
HT-29 = test system: HT-29
Hs-578T = test system: Hs-578T
K562 = test system: K562
KM12 = test system: KM12
LOX IMVI = test system: LOX IMVI
M14 = test system: M14
MCF7 = test system: MCF7
MDA-MB-231 = test system: MDA-MB-231
MDA-MB-435 = test system: MDA-MB-435
MOLT-4 = test system: MOLT-4
Malme-3M = test system: Malme-3M
NCI-H226 = test system: NCI-H226
NCI-H23 = test system: NCI-H23
NCI-H460 = test system: NCI-H460
NCI-H522 = test system: NCI-H522
NCI/ADR-RES = test system: NCI/ADR-RES
OVCAR-3 = test system: OVCAR-3
OVCAR-4 = test system: OVCAR-4
OVCAR-5 = test system: OVCAR-5
OVCAR-8 = test system: OVCAR-8
PC-3 = test system: PC-3
RPMI-8226 = test system: RPMI-8226
SF-268 = test system: SF-268
SF-295 = test system: SF-295
SF-539 = test system: SF-539
SK-MEL-28 = test system: SK-MEL-28
SK-MEL-2 = test system: SK-MEL-2
SN12C = test system: SN12C
SNB-19 = test system: SNB-19
SNB-75 = test system: SNB-75
SR = test system: SR
SW-620 = test system: SW-620
T47D = test system: T47D
TK-10 = test system: TK-10
U-251 = test system: U-251
UACC-257 = test system: UACC-257
UO-31 = test system: UO-31
CAKI-1 = test system: CAKI-1
HOP-92 = test system: HOP-92
IGROV-1 = test system: IGROV-1
RXF 393 = test system: RXF 393
SK-MEL-5 = test system: SK-MEL-5
SK-OV-3 = test system: SK-OV-3
UACC-62 = test system: UACC-62

Cc1nc(N)c(N2CCN(S(N)(=O)=O)CC2)c(O)n1
GI50 (786-0): > 100 µM (inactive)
GI50 (A498): > 100 µM (inactive)
GI50 (A549): > 100 µM (inactive)
GI50 (ACHN): > 100 µM (inactive)
GI50 (BT-549): > 100 µM (inactive)
GI50 (CCRF-CEM): > 100 µM (inactive)
GI50 (COLO 205): > 100 µM (inactive)
GI50 (DU-145): > 100 µM (inactive)
GI50 (EKVX): > 100 µM (inactive)
GI50 (HCC 2998): > 100 µM (inactive)
GI50 (HCT-116): > 100 µM (inactive)
GI50 (HCT-15): > 100 µM
GI50 (HL-60): > 100 µM (inactive)
GI50 (HOP-62): > 100 µM (inactive)
GI50 (HT-29): > 100 µM (inactive)
GI50 (Hs-578T): > 100 µM (inactive)
GI50 (K562): > 100 µM (inactive)
GI50 (KM12): > 100 µM (inactive)
GI50 (LOX IMVI): > 100 µM (inactive)
GI50 (M14): > 100 µM (inactive)
GI50 (MCF7): > 100 µM (inactive)
GI50 (MDA-MB-231): > 100 µM (inactive)
GI50 (MDA-MB-435): > 100 µM (inactive)
GI50 (MOLT-4): > 100 µM (inactive)
GI50 (Malme-3M): > 100 µM (inactive)
GI50 (NCI-H226): > 100 µM (inactive)
GI50 (NCI-H23): > 100 µM (inactive)
GI50 (NCI-H460): > 100 µM (inactive)
GI50 (NCI-H522): > 100 µM (inactive)
GI50 (NCI/ADR-RES): > 100 µM (inactive)
GI50 (OVCAR-3): > 100 µM (inactive)
GI50 (OVCAR-4): > 100 µM (inactive)
GI50 (OVCAR-5): > 100 µM (inactive)
GI50 (OVCAR-8): > 100 µM (inactive)
GI50 (PC-3): > 100 µM (inactive)
GI50 (RPMI-8226): > 100 µM (inactive)
GI50 (SF-268): > 100 µM (inactive)
GI50 (SF-295): > 100 µM (inactive)
GI50 (SF-539): > 100 µM (inactive)
GI50 (SK-MEL-28): > 100 µM (inactive)
GI50 (SK-MEL-2): > 100 µM (inactive)
GI50 (SN12C): > 100 µM (inactive)
GI50 (SNB-19): > 100 µM (inactive)
GI50 (SNB-75): > 100 µM (inactive)
GI50 (SR): > 100 µM (inactive)
GI50 (SW-620): > 100 µM (inactive)
GI50 (T47D): > 100 µM (inactive)
GI50 (TK-10): > 100 µM (inactive)
GI50 (U-251): > 100 µM (inactive)
GI50 (UACC-257): > 100 µM (inactive)
GI50 (UO-31): > 100 µM (inactive)

Cc1sc(Nc2ccc(Nc3nc(-c4ccccc4)c(C)s3)cc2)nc1-c1ccccc1
GI50 (786-0): 21.2 µM (inactive)
GI50 (A498): 21.8 µM (inactive)
GI50 (A549): 30.1 µM (inactive)
GI50 (ACHN): 36.5 µM (inactive)
GI50 (BT-549): > 100 µM (inactive)
GI50 (CAKI-1): 88.1 µM (inactive)
GI50 (CCRF-CEM): 2.29 µM (inactive)
GI50 (COLO 205): 16.2 µM (inactive)
GI50 (DU-145): 74 µM (inactive)
GI50 (EKVX): > 100 µM (inactive)
GI50 (HCC 2998): 16.9 µM (inactive)
GI50 (HCT-116): 62.2 µM (inactive)
GI50 (HCT-15): 44.8 µM
GI50 (HOP-62): > 100 µM (inactive)
GI50 (HOP-92): > 100 µM (inactive)
GI50 (HT-29): 60 µM (inactive)
GI50 (Hs-578T): > 100 µM (inactive)
GI50 (IGROV-1): > 100 µM (inactive)
GI50 (K562): 18.6 µM (inactive)
GI50 (KM12): > 100 µM (inactive)
GI50 (LOX IMVI): 40.6 µM (inactive)
GI50 (M14): 61.2 µM (inactive)
GI50 (MCF7): 21.8 µM (inactive)
GI50 (MDA-MB-231): 42 µM (inactive)
GI50 (MDA-MB-435): > 100 µM (inactive)
GI50 (MOLT-4): 17.1 µM (inactive)
GI50 (Malme-3M): > 100 µM (inactive)
GI50 (NCI-H226): 63.1 µM (inactive)
GI50 (NCI-H23): 28.7 µM (inactive)
GI50 (NCI-H460): 18.2 µM (inactive)
GI50 (NCI-H522): 35.4 µM (inactive)
GI50 (NCI/ADR-RES): 41.4 µM (inactive)
GI50 (OVCAR-3): > 100 µM (inactive)
GI50 (OVCAR-4): > 100 µM (inactive)
GI50 (OVCAR-5): > 100 µM (inactive)
GI50 (OVCAR-8): > 100 µM (inactive)
GI50 (PC-3): 16.6 µM (inactive)
GI50 (RXF 393): 8.67 µM (inactive)
GI50 (SF-268): > 100 µM (inactive)
GI50 (SF-295): 95.9 µM (inactive)
GI50 (SF-539): 26.3 µM (inactive)
GI50 (SK-MEL-28): > 100 µM (inactive)
GI50 (SK-MEL-2): 21.7 µM (inactive)
GI50 (SK-MEL-5): 22.6 µM (inactive)
GI50 (SK-OV-3): > 100 µM (inactive)
GI50 (SN12C): 31.3 µM (inactive)
GI50 (SNB-19): > 100 µM (inactive)
GI50 (SNB-75): 48.4 µM (inactive)
GI50 (SR): 20.9 µM (inactive)
GI50 (SW-620): 40.2 µM (inactive)
GI50 (T47D): 8.95 µM (inactive)
GI50 (TK-10): 57.8 µM (inactive)
GI50 (U-251): 13.7 µM (inactive)
GI50 (UACC-257): 43.1 µM (inactive)
GI50 (UACC-62): 54.3 µM (inactive)
GI50 (UO-31): 89.7 µM (inactive)
